Results on 28 molecules are retold here after patent US7435837B2, “Dihydrobenzofuranyl alkanamine derivatives and methods for using same” (Wyeth, priority 2003, dated 2008).

Test [1] deals with T1, human 5-hydroxytryptamine-2C (h5-HT2C) receptor (Homo sapiens, UniProt P28335).
T1 construct: expressed in transfected cells; host or cells: CHO (Chinese Hamster Ovary) cells; membranes
T1 sequence (P28335 33-458): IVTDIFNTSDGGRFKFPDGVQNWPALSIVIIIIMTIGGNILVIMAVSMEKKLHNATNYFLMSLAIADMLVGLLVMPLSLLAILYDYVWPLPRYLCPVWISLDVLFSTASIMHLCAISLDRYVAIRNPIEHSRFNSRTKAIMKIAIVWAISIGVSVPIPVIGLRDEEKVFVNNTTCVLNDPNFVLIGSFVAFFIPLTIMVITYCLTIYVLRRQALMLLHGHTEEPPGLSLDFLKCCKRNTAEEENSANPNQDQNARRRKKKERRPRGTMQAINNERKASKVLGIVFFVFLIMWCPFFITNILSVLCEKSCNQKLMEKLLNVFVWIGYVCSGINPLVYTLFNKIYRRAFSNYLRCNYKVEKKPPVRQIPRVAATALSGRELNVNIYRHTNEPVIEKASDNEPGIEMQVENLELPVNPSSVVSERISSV
The test is described as follows: [125I]DOI binding to membranes of CHO cells expressing the human 5-HT2C receptor. Conditions: [125I]DOI radioligand, CHO cell membranes, room temperature 60 min; read-out: 5-HT2C Affinity Ki.

The target in another test is T2, human 5-HT2C receptor (Homo sapiens, UniProt P28335).
T2 sequence (P28335 33-458): T1 sequence (P28335 33-458)
The test is described as follows: 5-HT2C receptor-stimulated calcium mobilization (FLIPR) in CHO cells.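 As to all read-outs here: Fluo-3-AM fluorescence read on FLIPR every 1 s, agonist added after 10 baseline reads, response taken as peak minus lowest raw fluorescence count.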 The class given is cell-based. Conditions: for EC50: calcium mobilization, CHO cells stably expressing human 5-HT2C, read-out: 5-HT2C Function EC50; for 5-HT2C Function Emax (%) / Emax: percentage of the response observed with a maximally effective concentration of 5-HT; for Emax: CHO, read-out: 5-HT2C Function Emax (%).

As for `COc1ccc(-c2cccc3c2OC(CN)C3)cc1` (single isomer, unassigned; (-)) [Example 81, (−)-1-[7-(4-methoxyphenyl)-2,3-dihydro-1-benzofuran-2-yl]methanamine], the Ki in test [1] was 0.024 µM. On human 5-HT2C receptor, the EC50 is 0.294 µM and the “5-HT2C Function Emax (%)” value worked out at 50%.
On to `CNC[C@H]1Cc2cc(F)cc(-c3ccccc3Cl)c2O1` [Example 545, (R)-[7-(2-chloro-phenyl)-5-fluoro-2,3-dihydro-benzofuran-2-ylmethyl]-methyl-amine], for which the Ki in test [1] came to 0.00014 µM. At human 5-HT2C receptor, the Emax amounted to 100% and the EC50 came to 0.0001 µM.
As for `NCC1Cc2cc(Cl)cc(-c3cccc(Cl)c3Cl)c2O1` (racemic) [Example 247, (±)-{[5-chloro-7-(2,3-dichlorophenyl)-2,3-dihydro-1-benzofuran-2-yl]methyl}amine], in test [1], the Ki worked out at 0.015 µM. In addition, on human 5-HT2C receptor, the Emax is 90% and the EC50 is 0.164 µM.
On the same counts, the results for `COc1cc2c(c(-c3c(C)cccc3C)c1)OC(CN)C2` (racemic) [Example 374, (±)-{[7-(2,6-dimethylphenyl)-5-methoxy-2,3-dihydro-1-benzofuran-2-yl]methyl}amine] are 0.0006 µM, 100% and 0.019 µM.
For the molecule `NCC1Cc2cc(F)cc(-c3ccc(F)cc3F)c2O1` (racemic) [Example 215, (±)-{[7-(2,4-difluorophenyl)-5-fluoro-2,3-dihydro-1-benzofuran-2-yl]methyl}amine], in test [1], the Ki is 0.005 µM. On human 5-HT2C receptor, the Emax came out at 80% and the EC50 was 0.08 µM.
On the same counts, the results for `NCC1Cc2cc(Cl)cc(-c3cc(Cl)ccc3Cl)c2O1` (racemic) [Example 256, (±)-{[5-chloro-7-(2,5-dichlorophenyl)-2,3-dihydro-1-benzofuran-2-yl]methyl}amine] are 0.00074 µM, 100% and 0.004 µM.
Regarding `CNCC1Cc2cc(C)cc(-c3ccccc3F)c2O1` (racemic) [Example 475, (±)-{[7-(2-fluorophenyl)-5-methyl-2,3-dihydro-1-benzofuran-2-yl]methyl}methylamine], the Ki in test [1] was determined as 0.0032 µM. For the same molecule, on human 5-HT2C receptor, the Emax was 80% and the EC50 amounted to 0.025 µM.
On the same counts, the results for `NCC1Cc2cccc(-c3ccc(Cl)cc3Cl)c2O1` (racemic) [Example 83, (±)-1-[7-(2,4-dichlorophenyl)-2,3-dihydro-1-benzofuran-2-yl]methanamine] are 0.001 µM, 100% and 0.0079 µM.
On the same counts, the results for `Cc1cc2c(c(-c3ccc(F)cc3)c1)OC(CN)C2` (racemic) [Example 291, (±)-{[7-(4-fluorophenyl)-5-methyl-2,3-dihydro-1-benzofuran-2-yl]methyl}amine] are 0.0004 µM, 100% and 0.022 µM.
On the same counts, the results for `CNCC1Cc2cccc(-c3ccccc3OC)c2O1` (racemic) [Example 413, (±)-[(N-methyl-1-[7-(2-methoxyphenyl)-2,3-dihydro-1-benzofuran-2-yl]methanamine] are 0.021 µM, 90% and 0.008 µM.
`NCC1Cc2cc(Cl)cc(-c3ccc(F)c(F)c3)c2O1` (racemic) [Example 258, (±)-{[5-chloro-7-(3,4-difluorophenyl)-2,3-dihydro-1-benzofuran-2-yl]methyl}amine]: the Ki in test [1] is 0.042 µM. Further, on human 5-HT2C receptor, the Emax was 80% and the EC50 is 0.734 µM.
`CNCC1Cc2cccc(-c3cccc(OC)c3)c2O1` (racemic) [Example 417, (±)-[(N-methyl-1-[7-(3-methoxyphenyl)-2,3-dihydro-1-benzofuran-2-yl]methanamine]: the Ki in test [1] was 0.0037 µM. In addition, at human 5-HT2C receptor, the Emax came out at 60% and the EC50 was 0.183 µM.
On to `CC(C)(C)c1cccc2c1OC(CN)C2` (single isomer, unassigned; (+)) [Example 26, (+)-1-(7-tert-butyl-2,3-dihydro-1-benzofuran-2-yl)methanamine], for which, in test [1], the Ki came to 0.071 µM. For the same molecule, at human 5-HT2C receptor, the EC50 is 0.079 µM and the “5-HT2C Function Emax (%)” value was 100%.
With `NCC1Cc2cc(-c3ccccc3)cc(-c3ccccc3)c2O1` (racemic) [Example 344, (±)-[(5,7-diphenyl-2,3-dihydro-1-benzofuran-2-yl)methyl]amine], the Ki in test [1] amounted to 0.275 µM. In addition, on human 5-HT2C receptor, the Emax is 60% and the EC50 is 2.92 µM.
On the same counts, the results for `CNCC1Cc2cc(OC)cc(-c3cccc(F)c3F)c2O1` (racemic) [Example 494, (±)-{[7-(2,3-difluorophenyl)-5-methoxy-2,3-dihydro-1-benzofuran-2-yl]methyl}methylamine] are 0.035 µM, 60% and 0.475 µM.
On the same counts, the results for `CC(C)NCC1Cc2cccc(-c3c(Cl)cccc3Cl)c2O1` (racemic) [Example 393, (±)-N-{[7-(2,6-dichlorophenyl)-2,3-dihydro-1-benzofuran-2-yl]methyl}propan-2-amine] are 0.0215 µM, 60% and 0.045 µM.
`Cc1cccc(C)c1-c1cc(F)cc2c1OC(CN)C2` (racemic) [Example 227, (±)-{[7-(2,6-dimethylphenyl)-5-fluoro-2,3-dihydro-1-benzofuran-2-yl]methyl}amine]: in test [1], the Ki was 0.0015 µM. At human 5-HT2C receptor, the Emax was determined as 95% and the EC50 is 0.003 µM.
On the same counts, the results for `NCC1Cc2cc(Cl)cc(-c3ccc(F)cc3F)c2O1` (racemic) [Example 250, (±)-{[5-chloro-7-(2,4-difluorophenyl)-2,3-dihydro-1-benzofuran-2-yl]methyl}amine] are 0.0025 µM, 90% and 0.072 µM.
On the same counts, the results for `NCC1Cc2cccc(-c3ccccc3C(F)(F)F)c2O1` (single isomer, unassigned; (-)) [Example 54, (−)-1-{7-[2-(trifluoromethyl)phenyl]-2,3-dihydro-1-benzofuran-2-yl}methanamine] are 0.0005 µM, 85% and 0.009 µM.
For the molecule `CN(C)CC1Cc2cc(F)cc(-c3c(Cl)cccc3Cl)c2O1` (racemic) [Example 237, (±)-{[7-(2,6-dichlorophenyl)-5-fluoro-2,3-dihydro-1-benzofuran-2-yl]methyl}dimethylamine], the Ki in test [1] was found to be 0.00057 µM. Besides, on human 5-HT2C receptor, the Emax was found to be 80% and the EC50 came out at 0.003 µM.
On the same counts, the results for `CNCC1Cc2cc(C)cc(-c3cccc(C)c3)c2O1` (racemic) [Example 478, (±)-{[7-(3-methylphenyl)-5-methyl-2,3-dihydro-1-benzofuran-2-yl]methyl}methylamine] are 0.011 µM, 70% and 0.225 µM.
Turning to `CNCC1Cc2cc(F)cc(-c3cc(Cl)ccc3Cl)c2O1` (single isomer, unassigned; (+)) [Example 450, (+)-{[5-fluoro-7-(2,5-dichlorophenyl)-2,3-dihydro-1-benzofuran-2-yl]methyl}methylamine], in test [1], the Ki was 0.00027 µM. In addition, at human 5-HT2C receptor, the Emax stood at 100% and the EC50 is 0.0008 µM.
On the same counts, the results for `NCC1Cc2cc(F)cc(-c3ccccc3C(F)(F)F)c2O1` (racemic) [Example 108, (±)-1-{5-fluoro-7-[2-(trifluoromethyl)phenyl]-2,3-dihydro-1-benzofuran-2-yl}methanamine] are 0.004 µM, 95% and 0.039 µM.
As for `COc1ccccc1-c1cc(Cl)cc2c1OC(CN)C2` (racemic) [Example 242, (±)-{[5-chloro-7-(2-methoxyphenyl)-2,3-dihydro-1-benzofuran-2-yl]methyl}amine], the Ki in test [1] worked out at 0.003 µM. At human 5-HT2C receptor, the maximum response (Emax) came to 90% and the EC50 is 0.048 µM.
On the same counts, the results for `NCC1Cc2cc(Cl)cc(-c3ccccc3F)c2O1` (racemic) [Example 241, (±)-{[5-chloro-7-(2-fluorophenyl)-2,3-dihydro-1-benzofuran-2-yl]methyl}amine] are 0.0003 µM, 90% and 0.029 µM.
On the same counts, the results for `COc1cccc(-c2cc(Cl)cc3c2OC(CN)C3)c1OC` (racemic) [Example 249, (±)-{[5-chloro-7-(2,3-dimethoxyphenyl)-2,3-dihydro 1-benzofuran-2-yl]methyl}amine] are 0.004 µM, 90% and 0.021 µM.
In the case of `NCC1Cc2cc(Cl)cc(-c3ccc(Cl)cc3Cl)c2O1` (single isomer, unassigned; (+)) [Example 253, (+)-{[5-chloro-7-(2,4-dichlorophenyl)-2,3-dihydro-1-benzofuran-2-yl]methyl}amine], the Ki in test [1] was found to be 0.0086 µM. Besides, on human 5-HT2C receptor, the EC50 is 0.251 µM and the “5-HT2C Function Emax (%)” value was found to be 90%.
Consider `Cc1ccc(Cl)cc1-c1cccc2c1OC(CN)C2` (racemic) [Example 168, (±)-{[7-(5-chloro-2-methylphenyl)-2,3-dihydro-1-benzofuran-2-yl]methyl}amine], for which the Ki in test [1] turned out to be 0.002 µM. In addition, at human 5-HT2C receptor, the Emax came to 100% and the EC50 worked out at 0.001 µM.

A word on the Ki: it is the dissociation constant of the complex between target and ligand, obtained from inhibition or displacement. By EC50 is commonly meant the concentration needed to bring the measured effect to its halfway point. By Emax is commonly meant the size of the effect at its maximum, as opposed to the concentration needed.
